# Reference: the NIST ThermoML archive (doi:10.1016/j.jct.2014.10.007)
# “And” between values parts separate entries of the source, which are not always exact repeats. Equal values may be shown once. Numbers after ± are expanded uncertainties.
# Assay: molar heat capacity at constant pressure; xn = mol fraction of the nth substance listed
# Settings: 1 kPa, Liquid, Small sample (50 mg) DSC
smiles,measurement,setting,value
[Ca+2].[F-].[F-] [calcium fluoride] + [F-].[Li+],molar heat capacity at constant pressure,"1255 K, x1 = 0.25",98.98 ± 10 J/K/mol
same,molar heat capacity at constant pressure,"1255.2 K, x1 = 0.125",70.22 ± 7.2 J/K/mol
same,molar heat capacity at constant pressure,"1255.2 K, x1 = 0.375",113.91 ± 12 J/K/mol
same,molar heat capacity at constant pressure,"1274.7 K, x1 = 0.25",102.2 ± 10 J/K/mol
same,molar heat capacity at constant pressure,"1275 K, x1 = 0.375",118.44 ± 12 J/K/mol
same,molar heat capacity at constant pressure,"1275.1 K, x1 = 0.125",82.4 ± 8.3 J/K/mol
same,molar heat capacity at constant pressure,"1294.9 K, x1 = 0.25",103.71 ± 10 J/K/mol
same,molar heat capacity at constant pressure,"1294.9 K, x1 = 0.375",121.83 ± 12 J/K/mol
same,molar heat capacity at constant pressure,"1305.1 K, x1 = 0.125",80.92 ± 8.2 J/K/mol
same,molar heat capacity at constant pressure,"1314.9 K, x1 = 0.25",96.32 ± 9.7 J/K/mol
same,molar heat capacity at constant pressure,"1315.2 K, x1 = 0.375",118.21 ± 12 J/K/mol
same,molar heat capacity at constant pressure,"1325.3 K, x1 = 0.125",79.47 ± 8 J/K/mol
same,molar heat capacity at constant pressure,"1334.9 K, x1 = 0.5",133.92 ± 14 J/K/mol and 120.41 ± 12 J/K/mol
same,molar heat capacity at constant pressure,"1335.2 K, x1 = 0.25",98.52 ± 9.9 J/K/mol
same,molar heat capacity at constant pressure,"1335.2 K, x1 = 0.375",115.41 ± 12 J/K/mol
same,molar heat capacity at constant pressure,"1345.4 K, x1 = 0.125",83.81 ± 8.5 J/K/mol
same,molar heat capacity at constant pressure,"1354.9 K, x1 = 0.5",125.69 ± 13 J/K/mol and 133.39 ± 13 J/K/mol
same,molar heat capacity at constant pressure,"1355.4 K, x1 = 0.125",82.43 ± 8.3 J/K/mol
same,molar heat capacity at constant pressure,"1355.5 K, x1 = 0.375",116.94 ± 12 J/K/mol
same,molar heat capacity at constant pressure,"1355.6 K, x1 = 0.25",98.96 ± 10 J/K/mol
same,molar heat capacity at constant pressure,"1375.4 K, x1 = 0.5",130.29 ± 13 J/K/mol and 135.8 ± 14 J/K/mol
same,molar heat capacity at constant pressure,"1375.5 K, x1 = 0.375",117.98 ± 12 J/K/mol
same,molar heat capacity at constant pressure,"1375.7 K, x1 = 0.125",75.1 ± 7.6 J/K/mol
same,molar heat capacity at constant pressure,"1375.7 K, x1 = 0.25",95.16 ± 9.6 J/K/mol
same,molar heat capacity at constant pressure,"1395.9 K, x1 = 0.5",132.9 ± 13 J/K/mol and 134.28 ± 14 J/K/mol
same,molar heat capacity at constant pressure,"1396 K, x1 = 0.125",81.03 ± 8.2 J/K/mol
same,molar heat capacity at constant pressure,"1396.1 K, x1 = 0.25",106.8 ± 11 J/K/mol
same,molar heat capacity at constant pressure,"1396.2 K, x1 = 0.375",111.04 ± 11 J/K/mol
same,molar heat capacity at constant pressure,"1415.9 K, x1 = 0.5",130.4 ± 13 J/K/mol and 137.28 ± 14 J/K/mol
same,molar heat capacity at constant pressure,"1416 K, x1 = 0.125",75.28 ± 7.6 J/K/mol
same,molar heat capacity at constant pressure,"1416.1 K, x1 = 0.25",101.47 ± 10 J/K/mol
same,molar heat capacity at constant pressure,"1416.1 K, x1 = 0.375",112.61 ± 11 J/K/mol
same,molar heat capacity at constant pressure,"1436.2 K, x1 = 0.125",76.95 ± 7.8 J/K/mol
same,molar heat capacity at constant pressure,"1436.2 K, x1 = 0.5",135.89 ± 14 J/K/mol and 130.39 ± 13 J/K/mol
same,molar heat capacity at constant pressure,"1436.3 K, x1 = 0.375",112.16 ± 11 J/K/mol
same,molar heat capacity at constant pressure,"1436.4 K, x1 = 0.25",102.59 ± 10 J/K/mol
same,molar heat capacity at constant pressure,"1456.5 K, x1 = 0.375",120.54 ± 12 J/K/mol
same,molar heat capacity at constant pressure,"1456.5 K, x1 = 0.5",134.58 ± 14 J/K/mol and 132.82 ± 13 J/K/mol
same,molar heat capacity at constant pressure,"1456.6 K, x1 = 0.125",77.21 ± 7.8 J/K/mol
same,molar heat capacity at constant pressure,"1456.8 K, x1 = 0.25",102.41 ± 10 J/K/mol
same,molar heat capacity at constant pressure,"1476.7 K, x1 = 0.5",147.97 ± 15 J/K/mol and 127.49 ± 13 J/K/mol
same,molar heat capacity at constant pressure,"1476.8 K, x1 = 0.125",83.38 ± 8.4 J/K/mol
same,molar heat capacity at constant pressure,"1476.9 K, x1 = 0.375",111.58 ± 11 J/K/mol
same,molar heat capacity at constant pressure,"1477 K, x1 = 0.25",101.6 ± 10 J/K/mol
same,molar heat capacity at constant pressure,"1497.1 K, x1 = 0.125",90.8 ± 9.2 J/K/mol
same,molar heat capacity at constant pressure,"1497.1 K, x1 = 0.375",123.99 ± 13 J/K/mol
same,molar heat capacity at constant pressure,"1497.1 K, x1 = 0.5",143.74 ± 15 J/K/mol and 127.89 ± 13 J/K/mol
same,molar heat capacity at constant pressure,"1497.2 K, x1 = 0.25",101.05 ± 10 J/K/mol
same,molar heat capacity at constant pressure,"1517.3 K, x1 = 0.125",97.18 ± 9.8 J/K/mol
same,molar heat capacity at constant pressure,"1517.4 K, x1 = 0.5",142.13 ± 14 J/K/mol and 123.38 ± 13 J/K/mol
same,molar heat capacity at constant pressure,"1517.5 K, x1 = 0.375",109.29 ± 11 J/K/mol
same,molar heat capacity at constant pressure,"1517.6 K, x1 = 0.25",104.18 ± 11 J/K/mol
